Assays:
[1] = Reversal of P-gp-mediated multidrug resistance in human KBV cells assessed as potentiation of paclitaxel-induced cytotoxicity by measuring paclitaxel IC50 at 5 uM after 72 hrs by MTT assay (Rvb = 1353.98 +/- 303.33 nM)
[2] = Reversal of P-gp-mediated multidrug resistance in human KBV cells assessed as potentiation of paclitaxel-induced cytotoxicity by measuring paclitaxel IC50 at 10 uM after 72 hrs by MTT assay (Rvb = 1353.98 +/- 303.33 nM)

| SMILES | IC50 [1] [nM] | IC50 [2] [nM] |
| --- | --- | --- |
| CC(C)(O)[C@H]1CC[C@@](C)([C@H]2CC[C@]3(C)[C@@H]2[C@H](O)C[C@@H]2[C@@]4(C)CC[C@H](N)C(C)(C)[C@@H]4CC[C@]23C)O1 | 135 | 48 |
| CC(C)(C)OC(=O)NCCCCCC(=O)N[C@H]1CC[C@]2(C)[C@H]3C[C@@H](O)[C@@H]4[C@@H]([C@]5(C)CC[C@H](C(C)(C)O)O5)CC[C@@]4(C)[C@]3(C)CC[C@H]2C1(C)C | 48 | 28 |

Reference: BindingDB's records for doi:10.1016/j.ejmech.2018.10.038 (Universities of Shandong, 2019)
